Results published in patent US20170050961A1, “IMIDAZO[1,2-A]PYRIDINES AS SOLUBLE GUANYLATE CYCLASE STIMULATORS FOR THE TREATMENT OF CARDIOVASCULAR DISEASES” (BAYER PHARMA AKTIENGESELLSCHAFT, priority 2014, published 2017).

Molecular target: T1, recombinant guanylate cyclase reporter cell line (Rattus norvegicus, UniProt P19686+P20595)
T1 construct: expressed in transfected cells
T1 sequence (P19686 1-690): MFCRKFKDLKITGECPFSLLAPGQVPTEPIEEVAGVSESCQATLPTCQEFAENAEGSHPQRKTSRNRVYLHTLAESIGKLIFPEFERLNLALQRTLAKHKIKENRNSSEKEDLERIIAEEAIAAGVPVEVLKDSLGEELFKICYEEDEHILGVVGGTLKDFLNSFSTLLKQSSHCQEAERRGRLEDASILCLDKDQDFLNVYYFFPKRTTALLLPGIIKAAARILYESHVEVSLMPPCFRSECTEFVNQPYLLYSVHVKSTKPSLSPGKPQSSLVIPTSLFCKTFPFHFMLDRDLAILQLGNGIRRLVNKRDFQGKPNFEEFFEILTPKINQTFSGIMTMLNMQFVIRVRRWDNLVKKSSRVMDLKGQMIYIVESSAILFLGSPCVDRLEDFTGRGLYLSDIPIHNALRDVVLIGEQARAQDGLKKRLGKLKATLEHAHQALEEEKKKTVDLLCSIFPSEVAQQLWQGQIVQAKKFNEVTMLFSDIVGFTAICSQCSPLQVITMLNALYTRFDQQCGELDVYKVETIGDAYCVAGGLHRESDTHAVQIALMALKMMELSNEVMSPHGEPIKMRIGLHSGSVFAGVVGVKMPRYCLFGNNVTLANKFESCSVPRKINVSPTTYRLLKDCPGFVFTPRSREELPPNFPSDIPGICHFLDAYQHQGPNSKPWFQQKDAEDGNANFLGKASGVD
T1 sequence (P20595 1-619): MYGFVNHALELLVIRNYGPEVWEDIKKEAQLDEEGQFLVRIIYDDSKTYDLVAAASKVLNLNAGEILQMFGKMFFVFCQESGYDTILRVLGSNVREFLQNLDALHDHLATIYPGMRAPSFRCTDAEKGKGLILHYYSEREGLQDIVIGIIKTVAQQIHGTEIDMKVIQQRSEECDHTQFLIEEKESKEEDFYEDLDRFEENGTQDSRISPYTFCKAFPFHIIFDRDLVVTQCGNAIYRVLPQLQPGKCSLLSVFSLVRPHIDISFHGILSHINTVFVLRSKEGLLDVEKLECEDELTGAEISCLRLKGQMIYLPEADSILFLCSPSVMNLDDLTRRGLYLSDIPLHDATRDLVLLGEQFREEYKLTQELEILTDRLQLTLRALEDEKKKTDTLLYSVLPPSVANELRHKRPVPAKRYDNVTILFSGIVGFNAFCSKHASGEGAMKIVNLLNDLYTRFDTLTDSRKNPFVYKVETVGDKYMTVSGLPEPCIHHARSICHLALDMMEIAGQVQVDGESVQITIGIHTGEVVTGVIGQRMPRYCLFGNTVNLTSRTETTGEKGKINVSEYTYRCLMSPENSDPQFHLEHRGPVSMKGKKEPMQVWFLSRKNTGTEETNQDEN
Assay: Effect on a recombinant guanylate cyclase reporter cell line
Format: cell-based
Settings: MEC=minimum effective concentration; in some cases as mean values for individual determinations
Experimental: B-2. Effect on a Recombinant Guanylate Cyclase Reporter Cell Line
The cellular activity of the compounds of the invention is determined using a recombinant guanylate cyclase reporter cell line, as described in F. Wunder et al., Anal Biochem. 339, 104-112 (2005).
Representative MEC values (MEC=minimum effective concentration) for the compounds of the invention are shown in the table below (in some cases as mean values for individual determinations): […]

| SMILES | MEC [µM] |
| --- | --- |
| CCC(C)(N)CNC(=O)c1c(COC)nc2c(OCc3c(F)cccc3F)cc(C)cn12.Cl (racemic) [Example 8, rac-N-(2-Amino-2-methylbutyl)-8-[(2,6-difluorobenzyl)oxy]-2-(methoxymethyl)-6-methylimidazo[1,2-a]pyridine-3-carboxamide hydrochloride] | 10 |
| Cc1cc(OCc2c(F)cccc2F)c2nc(C3CC(F)(F)C3)c(C(=O)NCC(C)(N)CCC(F)(F)F)n2c1 (single isomer, unassigned; enantiomer b) [Example 17, ent-N-(2-Amino-5,5,5-trifluoro-2-methylpentyl)-8-[(2,6-difluorobenzyl)oxy]-2-(3,3-difluorocyclobutyl)-6-methylimidazo[1,2-a]pyridine-3-carboxamide (enantiomer B)] | 3.0 |
| CCC(C)(N)CNC(=O)c1c(Cl)nc2c(OCc3c(F)cccc3F)cc(C)cn12 (racemic) [Example 20] | 0.07 |
| Cc1nc2c(OCc3ncccc3F)cccn2c1C(=O)NCC(C)(N)CCC(F)(F)F (single isomer, unassigned; enantiomer b) [Example 11, ent-N-(2-Amino-5,5,5-trifluoro-2-methylpentyl)-8-[(3-fluoropyridin-2-yl)methoxy]-2-methylimidazo[1,2-a]pyridine-3-carboxamide (enantiomer B)] | 1.0 |
| CCC(C)(N)CNC(=O)c1c(Cl)nc2c(OCc3c(F)cccc3F)cc(C)cn12 (single isomer, unassigned; enantiomer a) [Example 21, ent-N-(2-Amino-2-methylbutyl)-2-chloro-8-[(2,6-difluorobenzyl)oxy]-6-methylimidazo[1,2-a]pyridine-3-carboxamide (enantiomer A)] | 0.03 |
| CCC(C)(N)CNC(=O)c1c(C)nc2c(OCc3c(F)cccc3F)cc(-c3cnco3)cn12 (racemic) [Example 7, rac-N-(2-Amino-2-methylbutyl)-8-[(2,6-difluorobenzyl)oxy]-2-methyl-6-(1,3-oxazol-5-yl)imidazo[1,2-a]pyridine-3-carboxamide] | 1.0 |
| Cc1cc(OCc2c(F)cccc2F)c2nc(Cl)c(C(=O)NC(CCC(F)(F)C(F)(F)F)C(C)(C)O)n2c1 (single isomer, unassigned; ent-2) [Example 28, ent-2-Chloro-8-[(2,6-difluorobenzyl)oxy]-6-methyl-N-(6,6,7,7,7-pentafluoro-2-hydroxy-2-methylheptan-3-yl)imidazo[1,2-a]pyridine-3-carboxamide (enantiomer A)] | 0.03 |
| CCCC(C)(N)CNC(=O)c1c(Cl)nc2c(OCc3c(F)cccc3F)cc(C)cn12 (racemic) [Example 23, rac-N-(2-Amino-2-methylpentyl)-2-chloro-8-[(2,6-difluorobenzyl)oxy]-6-methylmidazo[1,2-a]pyridine-3-carboxamide] | 0.1 |
| Cc1cc(OCc2ncccc2F)c2nc(C)c(C(=O)NCC(C)(N)CCC(F)(F)F)n2c1 (single isomer, unassigned; enantiomer b) [Example 9, ent-N-(2-Amino-5,5,5-trifluoro-2-methylpentyl)-8-[(3-fluoropyridin-2-yl)methoxy]-2,6-dimethylimidazo[1,2-a]pyridine-3-carboxamide (enantiomer B)] | 0.3 |
| CCC(C)(N)CNC(=O)c1c(C)nc2c(OCc3c(F)cccc3F)cc(OC(F)F)cn12 (racemic) [Example 5, rac-N-(2-Amino-2-methylbutyl)-8-[(2,6-difluorobenzyl)oxy]-6-(difluoromethoxy)-2-methylimidazo[1,2-a]pyridine-3-carboxamide] | 3.0 |
| CCC(C)(N)CNC(=O)c1c(C)nc2c(OCc3c(F)cccc3F)cc(-c3cnn(C)c3)cn12 (racemic) [Example 6, rac-N-(2-Amino-2-methylbutyl)-8-[(2,6-difluorobenzyl)oxy]-2-methyl-6-(1-methyl-1H-pyrazol-4-yl)imidazo[1,2-a]pyridine-3-carboxamide] | 10 |
| CCC(C)(N)CNC(=O)c1c(C)nc2c(OCc3c(F)cccc3F)cc(COC)cn12.Cl (racemic) [Example 4, rac-N-(2-Amino-2-methylbutyl)-8-[(2,6-difluorobenzyl)oxy]-6-(methoxymethyl)-2-methylimidazo[1,2-a]pyridine-3-carboxamide hydrochloride] | 3.0 |
| Cc1cc(OCc2c(F)cccc2F)c2nc(C)c(C(=O)NCC(C)(N)CC[Si](C)(C)C)n2c1 (single isomer, unassigned; enantiomer b) [Example 14, ent-N-[2-Amino-2-methyl-4-(trimethylsilyl)butyl]-8-[(2,6-difluorobenzyl)oxy]-2,6-dimethylimidazo[1,2-a]pyridine-3-carboxamide (enantiomer B)] | 0.2 |
| CCCC[C@H](CO)NC(=O)c1c(OC)nc2c(OCc3c(F)cccc3F)cc(C)cn12 [Example 29, 8-[(2,6-Difluorobenzyl)oxy]-N-[(2R)-1-hydroxyhexan-2-yl]-2-methoxy-6-methylmidazo[1,2-a]pyridine-3-carboxamide] | 0.55 |
| CCC(C)(N)CNC(=O)c1c(C)nc2c(OCc3c(F)cccc3F)cc(-c3cccnc3)cn12 (racemic) [Example 1, rac-N-(2-Amino-2-methylbutyl)-8-[(2,6-difluorobenzyl)oxy]-2-methyl-6-(pyridin-3-yl)imidazo[1,2-a]pyridine-3-carboxamide] | 10 |
| Cc1cc(OCc2c(F)cccc2F)c2nc(C)c(C(=O)NCC(C)(N)CCC[Si](C)(C)C)n2c1 (single isomer, unassigned; enantiomer b) [Example 16, ent-N-[2-Amino-2-methyl-5-(trimethylsilyl)pentyl]-8-[(2,6-difluorobenzyl)oxy]-2,6-dimethylimidazo[1,2-a]pyridine-3-carboxamide (enantiomer B)] | 1.0 |
| Cc1cc(OCc2c(F)cccc2F)c2nc(C(C)C)c(C(=O)NCC(C)(N)CCC(F)(F)F)n2c1 (single isomer, unassigned; enantiomer b) [Example 18, ent-N-(2-Amino-5,5,5-trifluoro-2-methylpentyl)-8-[(2,6-difluorobenzyl)oxy]-2-isopropyl-6-methylimidazo[1,2-a]pyridine-3-carboxamide (enantiomer B)] | 2.0 |
| CCC(C)(N)CNC(=O)c1c(C)nc2c(OCc3c(F)cccc3F)cc(-n3cccn3)cn12.Cl (racemic) [Example 3, rac-N-(2-Amino-2-methylbutyl)-8-[(2,6-difluorobenzyl)oxy]-2-methyl-6-(1H-pyrazol-1-yl)imidazo[1,2-a]pyridine-3-carboxamide hydrochloride] | 3.0 |
| Cc1cc(OCc2c(F)cccc2F)c2nc(C)c(C(=O)NCC(C)(N)CCC[Si](C)(C)C)n2c1 (single isomer, unassigned; enantiomer a) [Example 15, ent-N-[2-Amino-2-methyl-5-(trimethylsilyl)pentyl]-8-[(2,6-difluorobenzyl)oxy]-2,6-dimethylimidazo[1,2-a]pyridine-3-carboxamide (enantiomer A)] | 0.3 |
| CCCC(C)(N)CNC(=O)c1c(Cl)nc2c(OCc3c(F)cccc3F)cc(C)cn12 (single isomer, unassigned; enantiomer b) [Example 25, ent-N-(2-Amino-2-methylpentyl)-2-chloro-8-[(2,6-difluorobenzyl)oxy]-6-methylimidazo[1,2-a]pyridine-3-carboxamide (enantiomer B)] | 0.3 |
